Experimental data published in paper PMC11673078, “DT-13 Mediates Ligand-Dependent Activation of PPARγ Response Elements In Vitro” (Biology, 2024).

Target: T1, PPARγ (Homo sapiens, UniProt P37231)
T1 construct: gene PPARG
T1 sequence (P37231 231-505 limits assumed): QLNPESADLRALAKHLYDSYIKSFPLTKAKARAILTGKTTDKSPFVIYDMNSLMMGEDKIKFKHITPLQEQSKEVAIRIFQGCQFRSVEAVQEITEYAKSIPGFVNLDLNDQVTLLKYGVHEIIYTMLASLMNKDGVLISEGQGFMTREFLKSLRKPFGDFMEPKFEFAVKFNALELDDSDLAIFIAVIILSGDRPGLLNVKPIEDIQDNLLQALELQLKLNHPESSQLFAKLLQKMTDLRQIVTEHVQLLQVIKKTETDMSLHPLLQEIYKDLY
Assay: fluorescence polarization competitive binding assay (PolarScreen PPARγ Green)

| SMILES | IC50 [nM] |
| --- | --- |
| CCCCC/C=C\C=C\C(O)CCCCCCCC(=O)O (centres unmarked) [9-hydroxyoctadecadienoic acid] | 1800 |
| O=C(Nc1ccccc1)c1cc([N+](=O)[O-])ccc1Cl [GW9662] | 22.3 |
